Source: patent publication US20250332442A1, “ORAL HYGIENE DEVICE AND SYSETM, AND USE METHOD” (CHANGSHA […] IN[…]., LTD., priority 2023, published 2025)

Key:
Type in all cases: cell-based
[1] = tested on: Enterococcus faecalis ATCC2921; assay: photodynamic sterilization experiment with root canal light guide needle device; conditions: red-light beam 630 nm, irradiation 30 s, tip of root canal light guide needle
Description: The photodynamic sterilization experiment on Enterococcus faecalis ATCC2921 is carried out using the device provided by the present disclosure and the photosensitizer toluidine blue O, and a red-light beam with a wavelength of 630 nm is selected to irradiate for 30 s.

[2] = tested on: Actinobacillus actinomycetemcomitans; assay: photodynamic sterilization with periodontal light guide needle device (Embodiment 4); conditions: red light beam 630 nm, irradiation 30 s, tip of periodontal light guide needle
Excerpt: The device of Embodiment 4 and photosensitizer toluidine blue O are used in cooperation to carry out photodynamic sterilization of Actinobacillus actinomycetemcomitans, and a red light beam with a wavelength of 630 nm is selected to irradiate for 30 s.

[3] = tested on: Porphyromonas gingivalis; assay: photodynamic sterilization with pure flat light guide needle device (Embodiment 8); conditions: red light beam 630 nm, irradiation 30 s, tail end of pure flat light guide needle
Excerpt: The device of Embodiment 8 and photosensitizer toluidine blue O are used in cooperation to carry out photodynamic sterilization of Porphyromonas gingivalis, and a red light beam with a wavelength of 630 nm is selected to irradiate for 30 s.

[4] = tested on: Enterococcus faecalis; assay: photodynamic sterilization experiment with constant-current source device (Embodiment 12); conditions: red light 630 nm and blue light 430 nm, irradiation 30 seconds, device of Embodiment 12
Excerpt: (§1) The device of Embodiment 12 and photosensitizer toluidine blue O are used in cooperation to carry out the photodynamic sterilization experiment on Porphyromonas gingivalis and Enterococcus faecalis. A red light beam with a wavelength of 630 nm and a blue light beam with a wavelength of 430 nm are used to irradiate for 30 seconds.

[5] = tested on: Porphyromonas gingivalis; assay: as above; conditions: red light 630 nm and blue light 430 nm, irradiation 30 seconds, device of Embodiment 12
Excerpt: as §1

Measured: sterilization efficiency

Cc1cc2nc3ccc(=[N+](C)C)cc-3sc2cc1N [toluidine blue O]
99%: all assays above
